Tests used:
barnyardgrass [1] = experiment: Test A preemergence; type: in vivo, Echinochloa crus-galli; settings: 0 to 100 scale where 0 is no effect and 100 is complete control
Procedure, shortened: (§1)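 Pre- and postemergence greenhouse screen. Soil: loam + sand. Spray carrier: solvent mixture, non-phytotoxic, with surfactant. Post timing at 1–2 leaves, height 2–10 cm. Readout: visual injury on a 0–100 scale roughly 10 days after application, untreated plants as reference.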

giant foxtail = experiment: Test A preemergence; type: in vivo, Setaria faberii; settings: 0 to 100 scale where 0 is no effect and 100 is complete control
Procedure, shortened: as §1

velvetleaf = experiment: Test A preemergence; type: in vivo, Abutilon theophrasti
Procedure, shortened: as §1

blackgrass [2] = experiment: Test C preemergence; type: in vivo, Alopecurus myosuroides; settings: for Blackgrass plant response rating: preemergence
Procedure, shortened: (§2)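 Whole-plant greenhouse test with surfactant-containing solvent formulation, applied preemergence to sown loam–sand pots or postemergence to 2–18 cm plants. Scored by eye 13 to 15 days on, 0–100 scale.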

corn [3] = experiment: Test C preemergence; type: in vivo, Zea mays; settings: for Corn plant response rating: preemergence
Procedure, shortened: as §2

morningglory = experiment: Test C preemergence; type: in vivo, Ipomoea coccinea; settings: preemergence
Procedure, shortened: as §2

ragweed = experiment: Test C preemergence; type: in vivo, Ambrosia elatior; settings: preemergence
Procedure, shortened: as §2

soybean = experiment: Test C preemergence; type: in vivo, Glycine max; settings: preemergence
Procedure, shortened: as §2

barnyardgrass [4] = experiment: Test C preemergence; type: in vivo, Echinochloa crus-galli; settings: for Barnyardgrass plant response rating: preemergence
Procedure, shortened: as §2

oilseed rape = experiment: Test C preemergence; type: in vivo, Brassica napus; settings: preemergence
Procedure, shortened: as §2

waterhemp [5] = experiment: Test C preemergence; type: in vivo, Amaranthus rudis; settings: preemergence
Procedure, shortened: as §2

blackgrass [6] = experiment: Test C postemergence; type: in vivo, Alopecurus myosuroides
Procedure, shortened: as §2

Italian ryegrass = experiment: Test C postemergence; type: in vivo, Lolium multiflorum
Procedure, shortened: as §2

corn [7] = experiment: Test C postemergence; type: in vivo, Zea mays
Procedure, shortened: as §2

lambsquarters = experiment: Test C postemergence; type: in vivo, Chenopodium album
Procedure, shortened: as §2

pigweed = experiment: Test C postemergence; type: in vivo, Amaranthus retroflexus
Procedure, shortened: as §2

barnyardgrass [8] = experiment: Test C postemergence; type: in vivo, Echinochloa crus-galli
Procedure, shortened: as §2

waterhemp [9] = experiment: Test C postemergence; type: in vivo, Amaranthus rudis
Procedure, shortened: as §2

[10] = 16 g ai/ha, scale 0 to 100 (0 no effect, 100 complete control)
[11] = 62 g ai/ha, scale 0 (no effect) to 100 (complete control)
[12] = 125 g ai/ha, scale 0 (no effect) to 100 (complete control)
[13] = Preemergence, 31 g ai/ha, scale 0 to 100, 0 no effect, 100 complete control
[14] = 16 g ai/ha, postemergence, 0 is no effect, 100 is complete control
[15] = 31 g ai/ha, postemergence, visual rating, scale 0 to 100 (0 no effect, 100 complete control), 13 to 15 days
[16] = 125 g ai/ha, postemergence, visual rating, scale 0 to 100 (0 no effect, 100 complete control)
[17] = Postemergence, 62 g ai/ha, scale 0 to 100 (0 no effect, 100 complete control)

Compound: FC(F)(F)c1cnn(-c2c(Cl)cccc2Oc2ncc(Cl)cn2)c1 [Compound 167]
- Plant response rating, Barnyardgrass (barnyardgrass [1]; 125 g ai/ha): 80
- Barnyardgrass plant response rating (barnyardgrass [1]; 500 g ai/ha): 100
- Plant response rating, Foxtail, Giant (giant foxtail; 125 g ai/ha): 100
- Foxtail, Giant plant response rating (giant foxtail; 500 g ai/ha): 100
- Velvetleaf plant response rating (0 to 100 scale) (velvetleaf; 125 g ai/ha): 80
- Velvetleaf plant response rating (velvetleaf; 500 g ai/ha, 0 to 100 scale where 0 is no effect and 100 is complete control): 100
- Blackgrass plant response rating (blackgrass [2]; [10]): 30
- Blackgrass plant response rating (blackgrass [2]; [11]): 90
- Blackgrass plant response rating (blackgrass [2]; [12]): 90
- Plant response rating, Blackgrass (blackgrass [2]; [13]): 30
- Corn plant response rating (corn [3]; [10]): 0
- Corn plant response rating (corn [3]; [11]): 25
- Corn plant response rating (corn [3]; [12]): 60
- Plant response rating, Corn (corn [3]; [13]): 5
- Morningglory plant response rating (morningglory; [10]): 30
- Morningglory plant response rating (morningglory; [11]): 50
- Morningglory plant response rating (morningglory; [12]): 100
- Ragweed plant response rating (ragweed; [10]): 15
- Ragweed plant response rating (ragweed; [11]): 15
- Ragweed plant response rating (ragweed; [12]): 20
- Soybean plant response rating (soybean; [10]): 10
- Soybean plant response rating (soybean; [11]): 90
- Soybean plant response rating (soybean; [12]): 90
- Barnyardgrass plant response rating (barnyardgrass [4]; [10]): 5
- Barnyardgrass plant response rating (barnyardgrass [4]; [11]): 100
- Barnyardgrass plant response rating (barnyardgrass [4]; [12]): 100
- Plant response rating, Barnyardgrass (barnyardgrass [4]; [13]): 85
- Oilseed Rape plant response rating (oilseed rape; [10]): 80
- Oilseed Rape plant response rating (oilseed rape; [11]): 90
- Oilseed Rape plant response rating (oilseed rape; [12]): 98
- Waterhemp plant response rating (waterhemp [5]; [10]): 100
- Waterhemp plant response rating (waterhemp [5]; [11]): 100
- Waterhemp plant response rating (waterhemp [5]; [12]): 100
- Plant response rating (0 to 100), Blackgrass (blackgrass [6]; [14]): 0
- Blackgrass plant response rating (blackgrass [6]; [15]): 5
- Plant response rating, Blackgrass (blackgrass [6]; [16]): 30
- Plant response rating, Blackgrass (blackgrass [6]; [17]): 5
- Plant response rating (0 to 100), Ryegrass, Italian (Italian ryegrass; [14]): 0
- Ryegrass, Italian plant response rating (Italian ryegrass; [15]): 10
- Plant response rating, Ryegrass, Italian (Italian ryegrass; [16]): 30
- Plant response rating, Ryegrass, Italian (Italian ryegrass; [17]): 5
- Plant response rating (0 to 100), Corn (corn [7]; [14]): 5
- Corn plant response rating (corn [7]; [15]): 5
- Plant response rating, Corn (corn [7]; [16]): 15
- Plant response rating, Corn (corn [7]; [17]): 10
- Plant response rating (0 to 100), Lambsquarters (lambsquarters; [14]): 80
- Lambsquarters plant response rating (lambsquarters; [15]): 90
- Plant response rating, Lambsquarters (lambsquarters; [16]): 100
- Plant response rating, Lambsquarters (lambsquarters; [17]): 98
- Plant response rating (0 to 100), Pigweed (pigweed; [14]): 80
- Pigweed plant response rating (pigweed; [15]): 90
- Plant response rating, Pigweed (pigweed; [16]): 98
- Plant response rating, Pigweed (pigweed; [17]): 95
- Plant response rating (0 to 100), Barnyardgrass (barnyardgrass [8]; [14]): 5
- Barnyardgrass plant response rating (barnyardgrass [8]; [15]): 5
- Plant response rating, Barnyardgrass (barnyardgrass [8]; [16]): 10
- Plant response rating, Barnyardgrass (barnyardgrass [8]; [17]): 10
- Plant response rating (0 to 100), Waterhemp (waterhemp [9]; [14]): 65
- Waterhemp plant response rating (waterhemp [9]; [15]): 75
- Plant response rating, Waterhemp (waterhemp [9]; [16]): 98
- Plant response rating, Waterhemp (waterhemp [9]; [17]): 85
